According to PubChem BioAssay (NCI):
Values joined by “and” are separate entries in the source; they are usually repeats but may differ in a detail not shown here. Identical values can stand only once.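 Briefly, cells in 96-well plates were exposed to five compound concentrations for 48 h, and endpoints were estimated by linear interpolation. Abbreviation: GI50, concentration required for 50% inhibition of growth. TGI marks complete inhibition of growth.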

How the values were obtained:
Test in all cases: NCI-60 cell line screen, 48 h
UACC-257 melanoma = test system: UACC-257 melanoma
SF-268 CNS = test system: SF-268 CNS
LOX IMVI melanoma = test system: LOX IMVI melanoma
UACC-62 melanoma = test system: UACC-62 melanoma
SK-MEL-5 melanoma = test system: SK-MEL-5 melanoma
MOLT-4 leukemia = test system: MOLT-4 leukemia
T-47D breast = test system: T-47D breast

Row | Structure (SMILES) | GI50 (UACC-257 melanoma) | TGI (UACC-257 melanoma) | GI50 (SF-268 CNS) | TGI (SF-268 CNS) | GI50 (LOX IMVI melanoma) | TGI (LOX IMVI melanoma) | GI50 (UACC-62 melanoma) | TGI (UACC-62 melanoma) | GI50 (SK-MEL-5 melanoma) | TGI (SK-MEL-5 melanoma) | GI50 (MOLT-4 leukemia) | TGI (MOLT-4 leukemia) | GI50 (T-47D breast) | TGI (T-47D breast)
1 | COc1c(O)cc2oc3cc(O)c(CC=C(C)C)c(O)c3c(=O)c2c1C/C=C(\C)CCC=C(C)C | 5.63 µM | 10.5 µM | 5.56 µM | 10 µM | 5.49 µM | 10.5 µM | 5.51 µM | 11.3 µM | 5.62 µM | 10.2 µM | 6.11 µM | 16.3 µM | – | –
2 | COc1cc(-c2cc(C(=O)Nc3nc4ccccc4s3)nc3cc(-c4ccccc4)nn23)cc(OC)c1OC | – | – | 4.5 µM | 48.8 µM | 5.57 µM | > 100 µM | 14.4 µM | 80.4 µM | 13.8 µM | > 100 µM | > 100 µM | > 100 µM | 21.4 µM | > 100 µM
3 | CS(=O)(=O)c1ccc(Oc2nccc(-c3c(-c4ccc(F)cc4)ncn3C3CCNCC3)n2)cc1 | – | – | > 25 µM | > 25 µM | > 25 µM | > 25 µM | > 25 µM | > 25 µM | > 25 µM | > 25 µM | > 12.9 µM | > 18.9 µM | > 25 µM | > 25 µM
4 | COC(=O)C/C(C)=C/[C@@H](O)[C@H]1O[C@@H]2CC/C(Cl)=C/C/C=C(/C)[C@H](OC(C)=O)CC(=O)O[C@@H]1C2 | 2.92 µM | 7.92 µM | 1.07 µM | 4.61 µM | 1.97 µM | 11.2 µM | 0.694 µM | 1.67 µM | 0.875 µM | 3.42 µM | 6.15 µM | 19.8 µM | – | –
5 | CCN(Cc1ccc(F)cc1F)c1ccc(CO)c(Cl)c1 | 0.128 µM | 0.372 µM | 22.7 µM | > 66.9 µM | 14.4 µM | 29 µM | 0.0981 µM | 0.581 µM | 5.75 µM | 20.5 µM | 19.7 µM | > 71.5 µM | 0.105 µM | 0.701 µM
6 | N#Cc1c2ccccc2c2nnc3cc(C(F)(F)F)ccc3n12 | – | – | 19.2 µM | > 100 µM | 21.7 µM | 62.9 µM | – | – | – | – | 34.7 µM | > 100 µM | > 100 µM | > 100 µM
7 | COc1ccc(/C=C/C(=O)/C=C(/C=C/c2ccc(OC)c(OC)c2)OB(F)F)cc1OC | 1.76 µM | 5.55 µM | 2.42 µM | > 100 µM | 0.808 µM | 2.19 µM | 0.574 µM | 2.16 µM | 1.49 µM | 3.23 µM | 0.449 µM | 6.17 µM | 0.805 µM | > 100 µM
8 | O=C1C(Cl)=C(Oc2ccccc2)C(=O)c2ccccc21 | 4.65 µM | 14.1 µM | 5.37 µM | 18.7 µM | 9.98 µM | 22.7 µM | 3.46 µM | 11.7 µM | 6.26 µM | 17.1 µM | 4.09 µM | 30.7 µM | – | –
9 | COc1ccc2c(CN3CCC(CO)CC3)cc3cc4c(cc3c2c1)OCO4 | 0.156 µM | 0.393 µM | 0.176 µM | 2.47 µM | 0.144 µM | 0.49 µM | 0.235 µM | 0.539 µM | 0.172 µM | 0.495 µM | 0.175 µM | 1.44 µM | 0.418 µM | 9.17 µM
10 | COc1ccc(-n2c(-c3ccc(NC(=O)CCCl)cc3)nnc2-c2cc(OC)c(OC)c(OC)c2)cc1 | 6.23 µM | > 14.3 µM | 4.09 µM | > 14.3 µM | 4.28 µM | > 14.3 µM | 2.54 µM | 6.92 µM | 3.46 µM | 10.3 µM | 3.4 µM | 10.6 µM | 3.01 µM | 14 µM
11 | C=C1C(=O)OC2C1C(OC(=O)/C(C)=C/C)CC(O)(CCl)C1C(OC(C)=O)C=C(C)C21O (stereo not drawn) | – | 34.1 µM | – | 32.4 µM | – | 20.7 µM | – | 29.3 µM | – | 34.4 µM | – | 21.1 µM | – | 42.6 µM
12 | NCCCn1c2c(c3ccccc3c1=O)C(=O)c1cc3c(cc1-2)OCO3 | 1.95 µM | 12.6 µM | 1.51 µM | 15 µM | 0.247 µM | 3.57 µM | 0.0631 µM | 0.62 µM | 0.122 µM | 0.802 µM | < 0.01 µM | – | 0.407 µM | 3.66 µM
13 | COC(=O)c1ccc(-c2nc3cc(F)c(F)cc3nc2C#N)cc1 | 10.2 µM | 18.8 µM | 1.5 µM | 4.64 µM | 0.948 µM | 1.79 µM | 2.66 µM | 5.83 µM | 6.87 µM | 13.7 µM | 3.27 µM | 12.3 µM | 12.8 µM | 32 µM
14 | Nc1nc(SCC(=O)O)[nH]c(=O)c1N | – | > 100 µM | – | > 100 µM | – | 42.8 µM | – | > 100 µM | – | > 100 µM | – | > 100 µM | – | > 100 µM
15 | O=C1CC2(CCCc3sccc32)C(=O)N1 (stereo not drawn) | – | > 100 µM | – | > 100 µM | – | > 100 µM | – | > 100 µM | – | > 100 µM | – | > 100 µM | – | > 100 µM
16 | COc1ccc(/C=C\c2cc(OC)c(OC)c(OC)c2)cc1NC(=O)[C@@H](N)CO | 27.1 µM | > 100 µM | 0.0462 µM | > 100 µM | 0.0376 µM | > 100 µM | – | > 100 µM | < 0.0112 µM | 0.0364 µM | 0.0432 µM | > 100 µM | – | –
17 | CCOC(=O)c1sc2ncn(Cc3cccc(Cl)c3)c(=O)c2c1C | 15.6 µM | 29.3 µM | 15.1 µM | 28.4 µM | 14.6 µM | 27.8 µM | 13.4 µM | 26.8 µM | 14.9 µM | 28.1 µM | 13.2 µM | 25.9 µM | 15.6 µM | 29 µM
18 | Cc1c2ncccc2c(C)c2c1[nH]c1ccc(O)cc12 | 27.3 µM | 25.2 µM and 89 µM | 7.55 µM | 19.1 µM | 2.39 µM | 6.61 µM | 7.92 µM | 27.1 µM and 21.1 µM | 3.95 µM | 20.4 µM and 15 µM | – | 3.56 µM and 2.13 µM | 42.8 µM | –
19 | O=C(Nc1ncc([N+](=O)[O-])s1)c1cccc([N+](=O)[O-])c1 | 3.19 µM | 13.8 µM | 8.25 µM | > 100 µM | 3.66 µM | > 100 µM | 2.38 µM | > 32.7 µM | 2.75 µM | 11.5 µM | 3.04 µM | > 34.1 µM | 2.02 µM | 12.9 µM
